Where a SMILES comes first, the peptide text is derived from it. Where no end group is shown, it is not given here. [ ]: non-standard residue; d: D form. Cit = NC(=O)NCCC[C@H](N)C(=O)O
Tests used:
[1] = system: antigen-presenting cells (APC); experiment: Pre-incubation of APC with NF-kB, mTOR or Syk inhibitors; T cell cytokine production in response to citrullinated aggrecan peptide; format: cell-based, human; conditions: APC pre-incubated 1 h with inhibitor, then LPS; 5 days with CD4+ T cells and 3 or 30 μg/mL Aggrecan peptide 84-103 cit 93
Method: Peripheral blood mononuclear cells (PBMC) were extracted from an RA patient with disease duration 18 years, positive anti-CCP and HLA-DRB1*0401 shared epitope. Autologous CD4+ T cells were isolated using immunomagnetic beads. The non-T cell fraction consists of antigen-presenting cells (APC), including dendritic cells, monocytes and B cells; it was treated with Mitomycin C to prevent proliferation. The APC were pre-incubated for 1 h without or with 3 uM BAY7011-82, 20 μg/mL Curcumin (both inhibit NF-kB), 10 ng/mL Rapamycin (inhibits mTOR) or […] Piceatannol (inhibits syk), then incubated with 100 ng/mL LPS for 1 h. The APC were washed 3 times then incubated for 5 days with CD4+ T cells in the presence of 0 μg/mL, 3 μg/mL or 30 μg/mL Aggrecan peptide 84-103 cit 93. Cytokines were analysed in culture supernatants by cytokine bead array.

[2] = Solubility of peptide in aqueous medium; format: physicochemical
CD4+ T cells = experiment: Flow cytometry and intracellular cytokine staining after peptide stimulation; format: cell-based, human
Method: FIG. 6 is a graphical representation showing cytokine secretion by CD4^+ T cell subsets. PBMC from HLA-DR SE^+ RA patients and healthy controls were incubated with 0 or 30 μg/ml citrullinated fibrinogen or citrullinated aggrecan, stained with mAb directed against CD4, CD28, IFN-γ and IL-6 (A), or CD4, CD45RO, IL-6 and IFN-γ (E) then analyzed by flow cytometry. B: The gating strategy is outlined. C: Fluorescence minus one (FMO) plot showing background staining for intracellular cytokine staining, gated on CD4^+ T cells. D: IL-6 staining of gated CD4^− non-T cells. The proportions in (E) of IL-6^+CD4^+CD45RO^+ T cells were 2.2%, 5.3% and 7.1%, and of IL-6^+CD4^+CD45RO^− T cells were 0.8%, 2.1% and 4% in response to incubation with no peptide, citrullinated fibrinogen and citrullinated aggrecan respectively. Two individual RA patients and 1 healthy control are shown. Data are representative of 2 healthy donors and 5 RA patients.
IL-6 is an important cytokine in RA, which could be produced upon stimulation of PBMC either by T cells or antigen presenting cells. To determine the origin of the cytokines secreted into supernatants of PBMC stimulated by citrullinated peptides, RA PBMC were incubated with citrullinated or native peptides for 5 days, with addition of Brefeldin-A for the last 18 hours, prior to intracellular cytokine staining along with analysis of cell surface markers. CD3^+CD4^+ T cells produced more intra-cellular IFN-γ and IL-6 when incubated with citrullinated aggrecan or fibrinogen relative to incubation in medium alone (FIG. 6A, B). […] In healthy controls, CD28^− cells comprised only a small proportion of the CD4^+ T cells, and cytokine-secreting cells were exclusively CD4^+CD28^+. CD28^− cells were more abundant among CD4^+ PB T cells in some, but not all, RA patients. Where CD4^+CD28^− T cells were present, IL-6 and IFN-γ were secreted by both CD28^− and CD28^+CD4^+ T cells in response to citrullinated peptides. […] IFN-γ^+CD4^+ and IL-6^+CD4^+ T cells included both CD45RO^+ and CD45RO^− cells (FIG. 6E).
PBMC from SE^+ RA patients or healthy controls were incubated with or without peptides at concentrations of 3 and 30 μg/mL for 5 days, with Brefeldin A (Sigma Aldrich) added for the final 18 hours. Cells were stained for CD3-FITC, CD4-APC/Cy7, CD28-FITC, CXCR5-PerCP/Cy5.5 and CD45RO-PerCP/Cy5.5 (Biolegend), followed by permeabilization and staining for intracellular IL-6-APC and IFN-γ-APC (Biolegend). Data were collected on the Gallios flow cytometer and analysed using Kaluza software (Beckman Coulter).

PBMC = experiment: Cytokine secretion in day 5 supernatants by Cytometric Bead Array (CBA) after peptide stimulation; format: cell-based, human; conditions: for cytokine responses to the epitope: current studies, fibrinogen: long-standing RA patients; for number of RA patients with positive IL-6 response to this epitope only: of 17 RA patients, threshold mean + 2 SD above native peptide response
PBMC or SFMC = format: cell-based, human
[3] = RA PBMC, 5 days, Brefeldin-A last 18 hours

## Cc1ccc(S(=O)(=O)/C=C/C#N)cc1 [Bay11-7082, E3((4-methylphenyl)-sulfonyl)-2-propenenitrile]
[1]
  capacity of APC presenting cit-peptide to induce T cell IL-6 production: partially suppressed

## CC(C)C[C@H](NC(=O)[C@H](CC(C)C)NC(=O)[C@@H](NC(=O)[C@@H](N)C(C)C)C(C)C)C(=O)N[C@H](C(=O)N[C@@H](C)C(=O)N[C@H](C(=O)N[C@@H](CCC(=O)O)C(=O)NCC(=O)N[C@@H](CCCNC(N)=O)C(=O)N[C@H](C(=O)N[C@@H](CCCNC(=N)N)C(=O)N[C@H](C(=O)N[C@@H](CC(N)=O)C(=O)N[C@@H](CO)C(=O)N[C@@H](C)C(=O)N[C@@H](Cc1ccc(O)cc1)C(=O)N[C@@H](CCC(N)=O)C(=O)N[C@@H](CC(=O)O)C(=O)N[C@@H](CCCCN)C(=O)O)C(C)C)C(C)C)[C@@H](C)O)C(C)C [citrullinated aggrecan, VVLLVATEGCitVRVNSAYQDK] (HELM PEPTIDE1{V.V.L.L.V.A.T.E.G.[Cit].V.R.V.N.S.A.Y.Q.D.K}$$$$V2.0; N-terminus and C-terminus assumed)
[2]
  solubility in aqueous medium: relatively insoluble in aqueous medium

## QDFIN[Cit]INKLKNS [citrullinated fibrinogen]
CD4+ T cells; 30 μg/ml peptide, no peptide 0.8%
  proportion of IL-6+CD4+CD45RO- T cells: 2.1%
CD4+ T cells; 30 μg/ml peptide, no peptide 2.2%
  proportion of IL-6+CD4+CD45RO+ T cells: 5.3%
CD4+ T cells; [3]
  intra-cellular IFN-γ in CD3+CD4+ T cells relative to medium alone: more
  intra-cellular IL-6 in CD3+CD4+ T cells relative to medium alone: more
PBMC; 6 SE+ healthy controls
  healthy controls whose PBMC dose-dependently secreted IL-6: 3/6
PBMC
  cytokine responses to the epitope: robust cytokine production
  number of RA patients with positive IL-6 response to this epitope only: 0

## QYM[Cit]ADQAAGGLR [citrullinated collagen type II]
PBMC
  number of RA patients with positive IL-6 response to this epitope only: 0

## SAVRA[Cit]SSVPGVR [citrullinated vimentin 66-78]
PBMC
  cytokine responses to the epitope: much weaker cytokine responses

## tetanus toxoid
PBMC or SFMC
  Proliferative responses to tetanus toxoid, RA compared with healthy control PBMC: significantly lower

— patent US20150216955A1, “IMMUNOMODULATORY AGENT AND USES THEREFOR” (The University of Queensland, priority 2012, published 2015)
